Here are results for two compounds from patent publication US20190029960A1, “Therapeutic Nanoparticles Having EGFR Ligands and Methods of Making and Using Same” (Pfizer Inc., priority 2016, published 2019).

pIC50: −log10 of the molar value.

For one assay, the target named is T1, recombinant human EGFR (Homo sapiens, UniProt P00533).
T1 construct: Fc; purchased R&D Systems
Briefly: EGF competition ELISA. It counts as binding. Here is the method:
Plates were blocked for 2 h with 2% BSA in PBS at RT. […] Plates were washed three times with PBS containing 0.05% Tween-20 (PBS-T) and then incubated with a 1:10,000 dilution of streptavidin-HRP (Thermo Fisher Scientific) diluted in assay buffer for 90 min at RT. Plates were washed an additional three times with PBS-T, and then incubated with TMB substrate (BioFx) for 15 min at RT. Reactions were stopped with stop solution (BioFx) and absorbance was read at 450 nm in a microplate reader (SpectraMax M5e, Molecular Devices).
Plates were blocked for 2 hours with 2% BSA in PBS at room temperature (RT). […] Peptides were reconstituted as 100% DMSO stocks, resulting in a final concentration of DMSO in the assay of 2% for all samples. Plates were washed three times with PBS containing 0.05% Tween-20 (PBS-T) and then incubated with a 1:10,000 dilution of streptavidin-HRP (Piece) diluted in assay buffer for 90 minutes at RT. Plates were washed an additional three times with PBS-T and then incubated with TMB substrate (BioFx) for 15 minutes at RT. The reaction was stopped with stop solution (BioFx) and absorbance was read at 450 nm in a microplate reader (SpectraMax M5e, Molecular Devices).

Another assay addresses T2, EGF bound EGFR (Homo sapiens, UniProt P00533).
T2 construct: purchased R&D Systems 344-ER-050 (rhEGFR-Fc); 236-EG (rhEGF)
As to the kind of experiment: SPR peptide binding, rhEGF pre-injected. The settings on record: With EGF. The method, then:
(§1) Surface plasmon resonance (SPR) binding studies were carried out on a Biacore T200 instrument (GE Healthcare). Approximately 10,000 RU of anti-Fc antibody (GE Healthcare, Cat #BR100839) was immobilized via amine coupling on each of flow cells 1 and 2 of a CM5 dextran-coated gold sensor chip (GE Healthcare, Cat #BR100530). […] The contact time and resulting amount of rhEGFR-Fc capture was varied based on the nature of the analyte, namely whether it was a peptide or nanoparticle.
(§2) Peptide binding assays were carried out in 10 mM PBS buffer supplemented with 0.05% surfactant P20 and 5% DMSO by volume, at 25° C. Peptides were injected over the rhEGFR-Fc surface for 60 s, followed by dissociation (buffer injection) for 60 s and regeneration with a 10 s pulse of 3M MgCl2. A fresh rhEGFR-Fc surface was generated for each concentration of each peptide tested. Peptide binding data was analyzed by fitting to a 1:1 Langmuir kinetic model to obtain the on-rate (ka), off-rate (kd) and/or equilibrium binding constant (KD) of the interaction.

The target in assay [1] is T3, Fc tagged recombinant human EGFR (rhEGFR-Fc) (Homo sapiens, UniProt P00533).
T3 construct: purchased R&D Systems 344-ER-050
It counts as binding. The following applies: Without EGF. Here is the method: as §1, §2

T3 sequence (P00533 with tags, fused parts or gaps limits assumed): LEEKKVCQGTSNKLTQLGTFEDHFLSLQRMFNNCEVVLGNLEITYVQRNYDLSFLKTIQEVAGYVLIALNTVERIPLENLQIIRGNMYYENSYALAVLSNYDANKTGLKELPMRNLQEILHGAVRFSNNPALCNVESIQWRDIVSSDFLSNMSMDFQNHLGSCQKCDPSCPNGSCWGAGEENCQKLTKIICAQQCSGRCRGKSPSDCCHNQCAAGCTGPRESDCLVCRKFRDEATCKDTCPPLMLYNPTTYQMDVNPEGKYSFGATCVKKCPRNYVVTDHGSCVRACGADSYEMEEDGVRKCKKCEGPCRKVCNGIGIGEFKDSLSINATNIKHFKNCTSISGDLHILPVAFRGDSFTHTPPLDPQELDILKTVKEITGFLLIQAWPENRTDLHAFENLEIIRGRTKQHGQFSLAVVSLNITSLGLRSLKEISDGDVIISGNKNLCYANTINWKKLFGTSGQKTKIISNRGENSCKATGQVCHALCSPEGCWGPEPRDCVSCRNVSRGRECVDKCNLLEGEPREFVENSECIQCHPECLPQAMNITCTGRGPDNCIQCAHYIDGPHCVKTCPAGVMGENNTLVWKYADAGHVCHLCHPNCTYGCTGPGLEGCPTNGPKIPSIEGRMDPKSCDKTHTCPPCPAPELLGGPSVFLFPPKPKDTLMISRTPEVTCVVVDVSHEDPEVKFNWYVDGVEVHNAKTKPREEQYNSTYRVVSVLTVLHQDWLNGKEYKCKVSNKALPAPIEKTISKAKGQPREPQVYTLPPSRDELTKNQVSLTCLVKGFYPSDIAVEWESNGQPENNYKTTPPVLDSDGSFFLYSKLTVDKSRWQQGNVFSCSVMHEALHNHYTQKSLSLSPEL
T2 sequence (P00533 with tags, fused parts or gaps limits assumed): as above
T2 sequence (P01133 971-1023 partner limits assumed): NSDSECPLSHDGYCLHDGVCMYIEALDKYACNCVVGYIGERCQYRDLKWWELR
T1 sequence (P00533 with tags, fused parts or gaps limits assumed): as the sequence (P00533 with tags, fused parts or gaps limits assumed) above

As for `CC[C@H](C)[C@H](NC(=O)[C@@H]1CSSC[C@H](NC(=O)[C@H](CCC(=O)O)NC(=O)[C@H](CO)NC(C)=O)C(=O)N[C@@H](Cc2ccccc2)C(=O)N2CCC[C@H]2C(=O)N[C@@H](C)C(=O)N[C@@H](C)C(=O)N2CCC[C@H]2C(=O)N[C@@H](CC(=O)O)C(=O)N[C@@H](Cc2c[nH]c3ccccc23)C(=O)N[C@@H](CC(C)C)C(=O)N[C@@H](CO)C(=O)N1)C(=O)N[C@@H](CC(C)C)C(=O)NCC(=O)NCC(=O)N[C@@H](CCCCNC(=O)CCOCCOCCOCCOCCOCCNC(=O)CCC(=O)N1Cc2ccccc2C#Cc2ccccc21)C(N)=O` [Peptide P1-3], the pIC50 at recombinant human EGFR was 5.39. As for `CC(=O)N[C@@H](CC(=O)O)C(=O)N1CCC[C@H]1C(=O)N[C@H]1CSSC[C@@H](C(=O)N[C@@H](CC(C)C)C(=O)N[C@@H](CCC(N)=O)C(=O)NCC(=O)NCC(=O)N[C@@H](CCCCNC(=O)CCOCCOCCOCCOCCOCCNC(=O)CCC(=O)N2Cc3ccccc3C#Cc3ccccc32)C(N)=O)NC(=O)[C@H](CCC(=O)O)NC(=O)[C@H](CCCNC(=N)N)NC(=O)CNC(=O)[C@H](Cc2c[nH]c3ccccc23)NC(=O)[C@H](C(C)C)NC(=O)[C@H](CCC(=O)O)NC(=O)[C@H](Cc2c[nH]c3ccccc23)NC(=O)[C@H]([C@@H](C)O)NC1=O` [Peptide P2], the results for the kd (on EGF bound EGFR; in assay [1]) were 7 ± 2 × 10^−3 s^−1 and 9 ± 2 × 10^−3 s^−1, respectively.
